Converted amounts (≈) assume the structure as drawn. Blank lines part the entries; values can stand above or below the compound they belong to.
Key:
Assay in all cases: ≥ marks a high value that may be exact or a test limit, other limits are often not marked, values filed in µg/mL are converted to µM
[1] = test system: Escherichia coli DH5alpha
[2] = test system: Staphylococcus aureus SH1000
[3] = test system: Mycobacterium tuberculosis H37Rv
[4] = test system: Pseudomonas aeruginosa H1001
[5] = test system: Bacillus megaterium ATCC 10778
[6] = test system: Bacillus subtilis ATCC 6633
[7] = test system: Candida albicans MDM8
[8] = test system: Candida tropicalis IOC 4560
[9] = test system: Enterobacter cloacae beta-12
[10] = test system: Escherichia coli SBS 363
[11] = test system: Micrococcus luteus A270
[12] = test system: Pseudomonas aeruginosa ATCC 27853
[13] = test system: Serratia marcescens ATCC 4112
[14] = test system: Staphylococcus aureus ATCC 29213
[15] = test system: Bordetella bronchiseptica CUN 11844-99
[16] = test system: Escherichia coli ATCC 25922
[17] = test system: Pseudomonas aeruginosa CUN 4158-02
[18] = test system: Staphylococcus aureus ATCC 25923
[19] = test system: Escherichia coli UB1005
[20] = test system: Pseudomonas aeruginosa H187
[21] = test system: Burkholderia cepacia ATCC 25416
[22] = test system: Pseudomonas aeruginosa H547
[23] = test system: Pseudomonas aeruginosa H744
[24] = test system: Pseudomonas aeruginosa K799
[25] = test system: Pseudomonas aeruginosa Z61
[26] = test system: Salmonella enterica subsp. enterica serovar Typhimurium ATCC 14028s

SMILES: CSCC[C@H](NC(=O)[C@H](CCC(=O)O)NC(=O)[C@H](CCCN=C(N)N)NC(=O)[C@@H](N)CCCCN)C(=O)N[C@@H](CCCCN)C(=O)N[C@@H](CCCN=C(N)N)C(=O)N1CCC[C@H]1C(=O)NCC(=O)N[C@@H](CCCCN)C(=O)NCC(=O)N[C@@H](CC(N)=O)C(=O)N[C@@H](CCCN=C(N)N)C(=O)N[C@@H](CC(N)=O)C(=O)N[C@@H](CC(N)=O)C(=O)N[C@@H](Cc1c[nH]c2ccccc12)C(=O)N[C@@H](CCCCN)C(=O)N[C@@H](CCCCN)C(=O)N[C@@H](CCC(=O)O)C(=O)N[C@@H](Cc1ccc(O)cc1)C(=O)O [KREMKRPGKGNRNNWKKEY]
MIC [3]: ≥ 82.7 µM

SMILES: CC(C)C[C@H](NC(=O)[C@H](C)NC(=O)CNC(=O)[C@H](CC(C)C)NC(=O)[C@@H](N)Cc1ccccc1)C(=O)N[C@@H](Cc1c[nH]c2ccccc12)C(=O)N[C@@H](CC(N)=O)C(=O)N[C@H](C(=O)N[C@@H](C)C(=O)N[C@@H](CCCCN)C(=O)N[C@@H](CO)C(=O)N[C@@H](Cc1ccc(O)cc1)C(=O)N[C@@H](Cc1ccccc1)C(N)=O)C(C)C [FLGALWNVAKSYF]
MIC [5]: 3.1 µM (≈ 4.7 µg/mL) | MIC [6]: 1.6 µM (≈ 2.42 µg/mL) | MIC [7]: ≥ 50 µM | MIC [8]: 12.5 µM (≈ 18.9 µg/mL) | MIC [9]: ≥ 50 µM | MIC [10]: 6.3 µM (≈ 9.54 µg/mL) | MIC [11]: 0.8 µM (≈ 1.21 µg/mL) | MIC [12]: > 50 µM | MIC [13]: 0.4 µM (≈ 0.606 µg/mL) | MIC [14]: 3.1 µM (≈ 4.7 µg/mL)

SMILES: CC(C)C[C@H](NC(=O)CNC(=O)[C@H](CCCCN)NC(=O)[C@H](Cc1ccccc1)NC(=O)[C@H](CCCCN)NC(=O)[C@H](Cc1c[nH]c2ccccc12)NC(=O)[C@H](CCCN=C(N)N)NC(=O)[C@H](Cc1ccccc1)NC(=O)[C@H](CCCCN)NC(=O)[C@H](CCCCN)NC(=O)[C@H](Cc1ccc(O)cc1)NC(=O)[C@H](CCCN=C(N)N)NC(=O)[C@H](CCCN=C(N)N)NC(=O)CN)C(=O)N[C@@H](Cc1ccccc1)C(=O)N[C@@H](CC(C)C)C(=O)N[C@@H](Cc1ccccc1)C(=O)N[C@@H](CC(C)C)C(=O)NCC(N)=O [GRRYKKFRWKFKGLFLFLG]
MIC [15]: 6.54 µM (≈ 16 µg/mL) | MIC [16]: 26.1 µM (≈ 64 µg/mL) | MIC [17]: 26.1 µM (≈ 64 µg/mL) | MIC [18]: 26.1 µM (≈ 64 µg/mL)

SMILES: CC(C)C[C@H](NC(=O)CN)C(=O)N[C@@H](Cc1ccccc1)C(=O)N[C@@H](CC(=O)O)C(=O)N[C@@H](CC(C)C)C(=O)N[C@@H](CC(C)C)C(=O)N[C@@H](CCCCN)C(=O)N[C@@H](CCCCN)C(=O)N[C@@H](CC(C)C)C(=O)N[C@@H](CC(C)C)C(=O)N[C@@H](CCCCN)C(=O)N[C@@H](CC(C)C)C(=O)N[C@@H](CC(C)C)C(=O)N[C@@H](CCCCN)C(N)=O [GLFDLLKKLLKLLK]
MIC [2]: ≥ 100 µM

SMILES: CC[C@H](C)[C@H](NC(=O)[C@H](CC(C)C)NC(=O)[C@H](C)NC(=O)[C@@H]1CCCN1C(=O)[C@H](CC(C)C)NC(=O)CNC(=O)[C@@H](NC(=O)[C@@H](NC(=O)[C@H](CC(C)C)NC(=O)[C@@H](NC(=O)[C@H](CCCCN)NC(=O)[C@H](CCCCN)NC(=O)[C@@H](NC(=O)[C@H](C)NC(=O)[C@@H](NC(=O)[C@@H](NC(=O)[C@H](CC(C)C)NC(=O)[C@H](CCCCN)NC(=O)[C@H](CCCCN)NC(=O)[C@@H](NC(=O)[C@H](Cc1ccccc1)NC(=O)[C@H](CCC(=O)O)NC(=O)[C@H](CCCCN)NC(=O)[C@H](Cc1c[nH]c2ccccc12)NC(=O)[C@@H](N)CCCCN)[C@@H](C)CC)[C@@H](C)O)[C@@H](C)O)C(C)C)C(C)C)[C@@H](C)O)[C@@H](C)O)C(=O)N[C@@H](CO)C(=O)O [KWKEFIKKLTTAVKKVLTTGLPALIS]
MIC [19]: 0.823 µM (≈ 2.4 µg/mL) | MIC [20]: 1.65 µM (≈ 4.8 µg/mL)

SMILES: CC[C@H](C)[C@H](NC(=O)CNC(=O)[C@@H](NC(=O)[C@H](CCCCN)NC(=O)[C@H](CCCCN)NC(=O)[C@H](Cc1ccccc1)NC(=O)[C@H](CC(C)C)NC(=O)[C@@H](N)CCCCN)[C@@H](C)CC)C(=O)NCC(=O)N[C@@H](C)C(=O)N[C@H](C(=O)N[C@@H](CC(C)C)C(=O)N[C@@H](CCCCN)C(=O)N[C@H](C(=O)N[C@@H](CC(C)C)C(=O)N[C@H](C(=O)N[C@H](C(=O)NCC(=O)N[C@@H](CC(C)C)C(=O)N1CCC[C@H]1C(=O)N[C@@H](C)C(=O)N[C@@H](CC(C)C)C(=O)N[C@@H](CCCCN)C(=O)N[C@@H](CC(C)C)C(=O)N[C@H](C(=O)N[C@@H](CC(C)C)C(=O)N[C@@H](CCCCN)C(=O)O)[C@@H](C)O)[C@@H](C)O)[C@@H](C)O)C(C)C)C(C)C [KLFKKIGIGAVLKVLTTGLPALKLTLK]
MIC [21]: 22.3 µM (≈ 64 µg/mL) | MIC [19]: 1.75 µM (≈ 5 µg/mL) | MIC [22]: 11.2 µM (≈ 32 µg/mL) | MIC [23]: 1.4 µM (≈ 4 µg/mL) | MIC [24]: 11.2 µM (≈ 32 µg/mL) | MIC [25]: 6.63 µM (≈ 19 µg/mL) | MIC [26]: 10.1 µM (≈ 29 µg/mL)

Now from value to compound:

MIC [1]: 3.16 µM (≈ 6.88 µg/mL) | MIC [2]: 3.16 µM (≈ 6.88 µg/mL)
SMILES: CC[C@H](C)[C@H](NC(=O)[C@H](C)NC(=O)[C@H](CCCCN)NC(=O)[C@@H](NC(=O)[C@H](CC(C)C)NC(=O)[C@H](CCCCN)NC(=O)[C@H](CCCCN)NC(=O)[C@@H](NC(=O)CNC(=O)[C@H](C)NC(=O)[C@H](Cc1ccccc1)NC(=O)[C@H](Cc1ccccc1)NC(=O)[C@H](CCCCN)NC(=O)CNC(=O)[C@@H](N)Cc1c[nH]c2ccccc12)C(C)C)[C@@H](C)O)C(=O)N[C@@H](CC(C)C)C(=O)NCC(=O)N[C@@H](CCC(=O)O)C(=O)N[C@H](C(=O)N[C@@H](C)C(N)=O)[C@@H](C)CC [WGKFFAGVKKLTKAILGEIA]

MIC [4]: ≥ 173 µM
SMILES: CC[C@H](C)[C@H](NC(=O)[C@H](C)NC(=O)[C@H](CC(N)=O)NC(=O)[C@H](CCSC)NC(=O)[C@@H]1CCCN1)C(=O)N[C@@H](CCCCN)C(=O)N[C@@H](CC(C)C)C(=O)N[C@@H](CC(C)C)C(=O)N[C@@H](CS)C(=O)N[C@@H](CCCN=C(N)N)C(=O)O [PMNAIKLLCR]

MIC [19]: 0.343 µM (≈ 1 µg/mL) | MIC [20]: 2.75 µM (≈ 8 µg/mL)
SMILES: CC[C@H](C)[C@H](NC(=O)[C@H](Cc1ccccc1)NC(=O)[C@H](CO)NC(=O)[C@H](CCCCN)NC(=O)[C@H](Cc1c[nH]c2ccccc12)NC(=O)[C@@H](N)CCCCN)C(=O)N[C@@H](CCCCN)C(=O)N[C@@H](CC(N)=O)C(=O)N[C@@H](CC(C)C)C(=O)N[C@@H](CCC(=O)O)C(=O)N[C@@H](CCCCN)C(=O)N[C@H](C(=O)N[C@@H](CC(C)C)C(=O)N[C@@H](CCCCN)C(=O)N1CCC[C@H]1C(=O)NCC(=O)NCC(=O)N[C@@H](CC(C)C)C(=O)N[C@@H](CC(C)C)C(=O)N[C@@H](CO)C(=O)N[C@@H](CC(N)=O)C(=O)N[C@H](C(=O)N[C@H](C(=O)N[C@H](C(=O)N[C@@H](CO)C(=O)N[C@@H](CC(C)C)C(=O)O)[C@@H](C)O)C(C)C)[C@@H](C)CC)C(C)C [KWKSFIKNLEKVLKPGGLLSNIVTSL]

MIC [4]: 0.112 µM (≈ 0.27 µg/mL)
SMILES: CC[C@H](C)[C@H](NC(=O)[C@H](CCCN=C(N)N)NC(=O)[C@H](CCCCN)NC(=O)[C@@H]1CCCN1C(=O)[C@@H]1CCCN1C(=O)[C@H](CCCN=C(N)N)NC(=O)[C@@H]1CCCN1C(=O)[C@H](CCCN=C(N)N)NC(=O)[C@@H]1CCCN1C(=O)[C@H](CC(C)C)NC(=O)[C@H](Cc1ccc(O)cc1)NC(=O)[C@@H]1CCCN1C(=O)[C@@H]1CCCN1C(=O)[C@H](CCCCN)NC(=O)[C@H](CC(=O)O)NC(=O)[C@@H](N)C(C)C)C(=O)N[C@@H](Cc1ccc(O)cc1)C(=O)N[C@@H](CC(N)=O)C(=O)N[C@@H](CCCN=C(N)N)C(=O)NCC(=O)O [VDKPPYLPRPRPPKRIYNRG]

MIC [4]: 0.12 µM (≈ 0.3 µg/mL)
SMILES: CC[C@H](C)[C@H](NC(=O)[C@H](CCCN=C(N)N)NC(=O)[C@H](CCCN=C(N)N)NC(=O)[C@H](CCCN=C(N)N)NC(=O)[C@@H]1CCCN1C(=O)[C@H](CCCN=C(N)N)NC(=O)[C@@H]1CCCN1C(=O)[C@H](CCCN=C(N)N)NC(=O)[C@@H]1CCCN1C(=O)[C@H](CC(C)C)NC(=O)[C@H](Cc1ccc(O)cc1)NC(=O)[C@@H]1CCCN1C(=O)[C@@H]1CCCN1C(=O)[C@H](CCCCN)NC(=O)[C@H](CC(=O)O)NC(=O)[C@@H](N)C(C)C)C(=O)N[C@@H](Cc1ccc(O)cc1)C(=O)N[C@@H](CC(N)=O)C(=O)N[C@@H](CCCN=C(N)N)C(=O)NCC(=O)O [VDKPPYLPRPRPRRRIYNRG]

Source: DBAASP
